Test results from BindingDB's records for doi:10.1016/j.bioorg.2014.03.008 (University of Ljubljana, 2014).

Key:
[1] = target: UDP-N-acetylglucosamine 1-carboxyvinyltransferase (Haemophilus influenzae (strain 86-028NP), UniProt Q4QLK7)
[2] = target: T1, UDP-N-acetylenolpyruvoylglucosamine reductase (Staphylococcus aureus, UniProt P61431)
T1 sequence (P61431 whole entry): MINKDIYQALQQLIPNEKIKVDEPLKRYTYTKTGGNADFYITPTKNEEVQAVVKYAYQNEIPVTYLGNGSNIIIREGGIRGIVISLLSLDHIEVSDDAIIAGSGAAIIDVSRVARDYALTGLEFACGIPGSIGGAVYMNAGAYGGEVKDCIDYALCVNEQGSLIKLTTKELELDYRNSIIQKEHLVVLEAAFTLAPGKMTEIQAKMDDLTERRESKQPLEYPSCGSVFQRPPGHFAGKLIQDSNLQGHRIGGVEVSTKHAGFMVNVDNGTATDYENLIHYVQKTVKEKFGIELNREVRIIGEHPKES

[3] = target: T1, UDP-N-acetylenolpyruvoylglucosamine reductase; remark: listed apart in the source
[4] = target: UDP-N-acetylglucosamine 1-carboxyvinyltransferase (Escherichia coli (strain K12), UniProt P0A749)
[5] = target: T2, UDP-N-acetylenolpyruvoylglucosamine reductase (Escherichia coli (strain K12), UniProt P08373)
T2 sequence (P08373 whole entry): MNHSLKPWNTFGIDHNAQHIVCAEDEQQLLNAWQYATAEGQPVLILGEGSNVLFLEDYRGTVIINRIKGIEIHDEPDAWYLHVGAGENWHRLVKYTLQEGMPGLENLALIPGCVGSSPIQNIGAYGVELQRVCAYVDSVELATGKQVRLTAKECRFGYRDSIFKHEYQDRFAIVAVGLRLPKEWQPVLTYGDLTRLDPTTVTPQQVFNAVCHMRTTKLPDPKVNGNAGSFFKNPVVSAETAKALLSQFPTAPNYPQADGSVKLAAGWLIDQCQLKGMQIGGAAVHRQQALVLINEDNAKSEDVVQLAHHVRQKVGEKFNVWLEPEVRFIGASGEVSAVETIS

[6] = target: T3, UDP-N-acetylmuramoyl-L-alanyl-D-glutamate--2,6-diaminopimelate ligase (Escherichia coli (strain K12), UniProt P22188)
T3 sequence (P22188 whole entry): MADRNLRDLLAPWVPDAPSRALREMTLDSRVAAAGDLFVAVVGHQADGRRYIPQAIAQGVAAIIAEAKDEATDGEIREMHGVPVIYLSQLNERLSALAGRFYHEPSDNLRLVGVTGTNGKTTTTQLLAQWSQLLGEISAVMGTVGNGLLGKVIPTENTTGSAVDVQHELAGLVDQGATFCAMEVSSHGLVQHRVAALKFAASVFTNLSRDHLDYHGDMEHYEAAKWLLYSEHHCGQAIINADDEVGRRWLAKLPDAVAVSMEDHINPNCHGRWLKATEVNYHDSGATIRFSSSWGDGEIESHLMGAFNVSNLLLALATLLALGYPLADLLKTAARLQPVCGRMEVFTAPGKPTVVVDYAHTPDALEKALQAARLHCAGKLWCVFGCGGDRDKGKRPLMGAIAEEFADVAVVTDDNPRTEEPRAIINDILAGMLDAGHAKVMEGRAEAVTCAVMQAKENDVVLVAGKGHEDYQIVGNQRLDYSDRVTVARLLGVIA

[7] = target: T4, UDP-N-acetylmuramoyl-tripeptide--D-alanyl-D-alanine ligase (Streptococcus pneumoniae (strain ATCC BAA-255 / R6), UniProt Q8DNV6)
T4 sequence (Q8DNV6 whole entry): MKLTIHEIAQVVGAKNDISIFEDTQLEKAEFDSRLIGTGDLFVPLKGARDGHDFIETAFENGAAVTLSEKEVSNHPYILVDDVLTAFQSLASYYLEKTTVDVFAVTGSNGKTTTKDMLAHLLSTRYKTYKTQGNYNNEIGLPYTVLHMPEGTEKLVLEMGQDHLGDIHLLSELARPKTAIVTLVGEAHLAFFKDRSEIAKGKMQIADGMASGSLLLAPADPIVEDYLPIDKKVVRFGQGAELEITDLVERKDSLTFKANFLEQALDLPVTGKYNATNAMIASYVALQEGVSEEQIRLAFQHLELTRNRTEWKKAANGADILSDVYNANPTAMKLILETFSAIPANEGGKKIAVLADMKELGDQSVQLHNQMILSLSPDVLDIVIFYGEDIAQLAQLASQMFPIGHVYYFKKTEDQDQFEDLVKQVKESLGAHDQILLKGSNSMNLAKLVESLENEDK

[8] = target: T5, UDP-N-acetylmuramoyl-tripeptide--D-alanyl-D-alanine ligase (Escherichia coli (strain K12), UniProt P11880)
T5 sequence (P11880 whole entry): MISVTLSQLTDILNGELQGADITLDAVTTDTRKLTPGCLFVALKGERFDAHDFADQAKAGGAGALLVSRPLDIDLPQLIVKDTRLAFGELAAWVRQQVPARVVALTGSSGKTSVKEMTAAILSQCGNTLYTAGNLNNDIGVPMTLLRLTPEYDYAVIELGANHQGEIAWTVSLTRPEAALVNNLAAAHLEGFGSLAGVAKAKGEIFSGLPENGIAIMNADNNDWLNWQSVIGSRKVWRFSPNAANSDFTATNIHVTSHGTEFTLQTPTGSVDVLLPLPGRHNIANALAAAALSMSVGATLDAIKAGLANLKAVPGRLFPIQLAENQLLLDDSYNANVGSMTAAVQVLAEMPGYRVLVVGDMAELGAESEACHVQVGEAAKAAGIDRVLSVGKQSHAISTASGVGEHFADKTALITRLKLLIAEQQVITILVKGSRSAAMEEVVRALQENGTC

UDP-N-acetylglucosamine 1-carboxyvinyltransferase (Haemophilus influenzae (strain 86-028NP), UniProt Q4QLK7), sequence (Q4QLK7 whole entry): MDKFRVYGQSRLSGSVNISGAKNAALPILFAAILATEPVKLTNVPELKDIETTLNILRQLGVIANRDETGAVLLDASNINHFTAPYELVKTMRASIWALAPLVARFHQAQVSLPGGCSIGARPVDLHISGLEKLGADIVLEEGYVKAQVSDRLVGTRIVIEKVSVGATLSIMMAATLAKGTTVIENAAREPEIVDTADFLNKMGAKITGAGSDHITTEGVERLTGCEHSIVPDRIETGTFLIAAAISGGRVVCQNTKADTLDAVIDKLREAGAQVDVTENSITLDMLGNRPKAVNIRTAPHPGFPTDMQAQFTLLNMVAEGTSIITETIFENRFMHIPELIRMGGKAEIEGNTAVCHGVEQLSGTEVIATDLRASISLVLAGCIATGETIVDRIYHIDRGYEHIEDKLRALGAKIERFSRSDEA
UDP-N-acetylglucosamine 1-carboxyvinyltransferase (Escherichia coli (strain K12), UniProt P0A749), sequence (P0A749 whole entry): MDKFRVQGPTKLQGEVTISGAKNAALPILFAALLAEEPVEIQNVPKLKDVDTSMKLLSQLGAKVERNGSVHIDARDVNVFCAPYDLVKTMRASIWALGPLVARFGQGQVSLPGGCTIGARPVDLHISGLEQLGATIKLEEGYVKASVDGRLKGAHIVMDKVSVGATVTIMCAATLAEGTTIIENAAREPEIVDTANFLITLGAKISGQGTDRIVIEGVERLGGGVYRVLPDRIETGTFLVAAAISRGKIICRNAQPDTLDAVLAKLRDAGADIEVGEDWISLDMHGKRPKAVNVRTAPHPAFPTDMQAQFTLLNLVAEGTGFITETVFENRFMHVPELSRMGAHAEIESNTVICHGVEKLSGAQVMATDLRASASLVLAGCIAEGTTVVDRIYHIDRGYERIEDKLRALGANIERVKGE

Which IC50 [1] does the source give for `O=c1c2ccccc2[se]n1-c1ccccc1` [2-Phenyl-benzo[d]isoselenazol-3-one] here?
The IC50 was 0.1 µM.

How did the IC50 [1] turn out when `O=C1C(Oc2ccc(O)cc2)=C(Cl)C(=O)c2ncccc21` [MurA inhibitor (compound 11)] was run?
The IC50 was 2.8 µM.

Which Kd [2] does the source give for `CCOC(=O)C(=NNc1cccc(C(F)(F)F)c1)C1=Nc2ccccc2SC1` [MurB inhibitor (compound 15)] here?
Its Kd is 0.14 µM.

How did the Kd [2] turn out when `O=C(Sc1nnc(C(F)(F)F)[nH]1)c1ccc(C#Cc2ccccc2)o1` [MurB inhibitor (compound 16)] was run?
The Kd was 0.17 µM.

With `CC1(CC(=O)Nc2ccc(Cl)cc2Cl)C(=O)N(c2ccc(Cl)cc2)N(c2ccc(Cl)cc2)C1=O` [MurB inhibitor (compound 18)] as the molecule, how does the IC50 [3] read?
Its IC50 is 4.3 µM.

And the IC50 [4]?
The IC50 was 21.6 µM.

What about the IC50 [5] of the same molecule?
Its IC50 is 4.1 µM.

For `O=C(Nc1ccc(Cl)c(Cl)c1)Nc1ncc([N+](=O)[O-])s1` [MurB inhibitor (compound 19)], which IC50 [3] is on record?
The IC50 was 3 µM.

What about the IC50 [4] of the same molecule?
The IC50 was 4.6 µM.

What about the IC50 [5] of the same molecule?
The IC50 was 3.8 µM.

`O=C(O)c1cc(C(=O)O)cc(-c2ccc(CC3SC(=S)N(c4ccc5c(c4)OCO5)C3=O)o2)c1` (stereo not given) [MurD/E inhibitor (compound 33)] was tested. Which IC50 [6] did it give?
The IC50 was 32 µM.

`N#CC1=C(NC(=O)c2cc(OCCN=C(N)N)ccc2Cl)SC2CN(Cc3ccc(O)cc3)CCC12` (stereo not given) [MurF inhibitor (compound 58)] was tested. Which IC50 [7] did it give?
The IC50 was 20 µM.

And the IC50 [8]?
Its IC50 is 25 µM.

With `C#CC1=C(NC(=O)c2cccc(OCn3cc(Cl)cn3)c2)SC2CCCC12` (stereo not given) [MurF inhibitor (compound 60)] as the molecule, how does the IC50 [7] read?
The IC50 was 126 µM.

And the IC50 [8]?
Its IC50 is 56 µM.
